According to patent US10278943B2, “Method of treating hyperglycemia” (Center Laboratories, Inc., priority 2016, dated 2019):

How the values were obtained:
Type in all cases: in vivo
[1] = test system: STZ-induced diabetic mice; assay: Blood glucose level in STZ-induced diabetic mice (Example 1.1)
Method: Wide-type male C57BL/6 mice were rendered diabetic by multiple intraperitoneal injection of streptozotocin (STZ, 40 mg/Kg/day for 5 days, day 1 to day 5). […] For animals treated with insulin, insulin was administered subcutaneously 90 minutes before blood glucose measurement. Non-fasting blood glucose level was measured on days 6, 15, and 25, whereas fasting blood glucose (i.e., blood glucose level after fasting for 12 hrs fasting) was measured on days 40 and 50.
Results are illustrated in FIG. 1.

NIDDM mice [2] = assay: Fasting blood glucose level in NIDDM (db/db) mice, 44 days treatment (Example 1.2)
Method: (§1) NIDDM mice and db/m+ mice (the sham control) were acclimated at least one week and then grouped for treatment when the average blood glucose value was ≥350 mg/dl after 6-hr fasting. […] Blood glucose and glycated haemoglobin (HbA1c) levels were measured on designated days after 6-hr fasting. Body weight of each test animal was also measured during the study period.
For comparison, a group of 5 db/m+ (C57BLKS/J Lar-m+/+Lepr^db) mice were used as the sham control. Blood glucose levels were measured on day 0 (before treatment), and on days 15, 30, and 45 in the 6-hr fasting animals. Results are illustrated in FIG. 2.

NIDDM mice [3] = assay: Glycated haemoglobin (HbA1c) level in NIDDM (db/db) mice, R-VPM and/or metformin (Example 2.2); details: for C = B − A, HbA1c level minus vehicle / HbA1c level relative to day 0 = 100: metformin 300 mg/Kg once daily
Method: as §1
(§2) For comparison, a group of 8 db/m+ (C57BLKS/J Lar-m+/+Lepr^db) mice were used as the sham control. Levels of blood glucose and HbA1c were respectively measured on day 0 (before treatment), and on day 15, 29 and 43 in the 6-hr fasting animals.
Another common indicator, glycated haemolglobin (HbA1c), which reflects average blood glucose levels over a duration was also measured in the present study. HbA1c develops when haemolglobin, a protein within red blood cells that carries oxygen throughout the body joins with glucose in the blood and becomes “glycated.” Since red blood cells in a human body survive for about 8-12 weeks before renewal, thus, the level of HbA1c gives an overall picture of average blood sugar levels over such period.

NIDDM mice [4] = assay: Fasting blood glucose level in NIDDM (db/db) mice, R-VPM and/or metformin, 42 days (Example 2.1); details: for blood glucose level, % of day 0: 6-hr fasting; for effect on blood glucose level on its own: low dose, 15 mg/Kg, HCl; for reduction of blood glucose level compared with the vehicle group: metformin 300 mg/Kg
Method: as §1, §2
In Table 1, blood glucose level in each treatment group was expressed as % of the control, which was the blood glucose level on day 0 and was taken to be 100%.

[5] = metformin 300 mg/Kg once daily, day 15
[6] = metformin 300 mg/Kg once daily, day 29
[7] = metformin 300 mg/Kg once daily, day 43

COc1ccc(CCN(C)CCCC(C#N)(c2ccc(OC)c(OC)c2)C(C)C)cc1OC (racemic) [VPM, 2-(3,4-dimethoxyphenyl)-5-[2-(3,4-dimethoxyphenyl)ethylmethylamino]-2-propan-2-ylpentanenitrile, reference compound]
effect on fasting or non-fasting blood glucose level (FIG. 1) ([1]; 25 or 35 mg/Kg, bid, oral): had no effects
effect on reduction of fasting blood glucose level (FIG. 2) (NIDDM mice [2]; 30 mg/Kg, bid): neither racemic verapamil HCl (30 mg/Kg, bid) nor (S)-(−)-verapamil HCl, possessed any effect

COc1ccc(CCN(C)CCC[C@](C#N)(c2ccc(OC)c(OC)c2)C(C)C)cc1OC.Cl [R-VMP, (R)-(+)-verapamil HCl]
potency in reducing the level of fasting blood glucose, compared between enantiomers (FIG. 1) ([1]; oral, bid, fasting 12 hrs, days 40 and 50): relatively more potent than (S)-(−)-verapamil HCl
dose at which the compound alone is effective in reducing blood glucose level ([1]; taken together of the findings in the working examples): ≥ 25 mg/Kg, bid
effect on fasting blood glucose level compared with control vehicle NIDDM mice (FIG. 2) (NIDDM mice [2]; 50 and 75 mg/Kg, bid): reduced the fasting blood glucose level
effect on HbA1c level (FIG. 4) (NIDDM mice [3]; 15 mg/Kg, bid): no effect
effect on HbA1c level (FIG. 4) (NIDDM mice [3]; 30 mg/Kg, bid): mild reduction
E = D − A, HbA1c level minus vehicle (NIDDM mice [3]; R-VMP 15 mg/Kg, bid, day 15): −2.5
E = D − A, HbA1c level minus vehicle (NIDDM mice [3]; R-VMP 15 mg/Kg, bid, day 29): 0.9
E = D − A, HbA1c level minus vehicle (NIDDM mice [3]; R-VMP 15 mg/Kg, bid, day 43): −3.8
E = D − A, HbA1c level minus vehicle (NIDDM mice [3]; R-VMP 30 mg/Kg, bid, day 15): −1
E = D − A, HbA1c level minus vehicle (NIDDM mice [3]; R-VMP 30 mg/Kg, bid, day 29): 0.1
E = D − A, HbA1c level minus vehicle (NIDDM mice [3]; R-VMP 30 mg/Kg, bid, day 43): −12.8
E = D − A, HbA1c level minus vehicle (NIDDM mice [3]; R-VMP 50 mg/Kg, bid, day 15): −4.5
E = D − A, HbA1c level minus vehicle (NIDDM mice [3]; R-VMP 50 mg/Kg, bid, day 29): −3.7
E = D − A, HbA1c level minus vehicle (NIDDM mice [3]; R-VMP 50 mg/Kg, bid, day 43): −10.5
E = D − A, blood glucose level minus vehicle (NIDDM mice [4]; R-VMP 15 mg/Kg, bid, day 15): 2.3%
blood glucose level, % of day 0 (NIDDM mice [4]; R-VMP 15 mg/Kg, bid, day 15): 99.4%
E = D − A, blood glucose level minus vehicle (NIDDM mice [4]; R-VMP 15 mg/Kg, bid, day 29): 5.2%
blood glucose level, % of day 0 (NIDDM mice [4]; R-VMP 15 mg/Kg, bid, day 29): 121.6%
E = D − A, blood glucose level minus vehicle (NIDDM mice [4]; R-VMP 15 mg/Kg, bid, day 43): −6.6%
blood glucose level, % of day 0 (NIDDM mice [4]; R-VMP 15 mg/Kg, bid, day 43): 115%
E = D − A, blood glucose level minus vehicle (NIDDM mice [4]; R-VMP 30 mg/Kg, bid, day 15): −9.4%
blood glucose level, % of day 0 (NIDDM mice [4]; R-VMP 30 mg/Kg, bid, day 15): 87.7%
E = D − A, blood glucose level minus vehicle (NIDDM mice [4]; R-VMP 30 mg/Kg, bid, day 29): −12.9%
blood glucose level, % of day 0 (NIDDM mice [4]; R-VMP 30 mg/Kg, bid, day 29): 103.5%
E = D − A, blood glucose level minus vehicle (NIDDM mice [4]; R-VMP 30 mg/Kg, bid, day 43): −21.9%
blood glucose level, % of day 0 (NIDDM mice [4]; R-VMP 30 mg/Kg, bid, day 43): 99.7%
E = D − A, blood glucose level minus vehicle (NIDDM mice [4]; R-VMP 50 mg/Kg, bid, day 15): −14.8%
blood glucose level, % of day 0 (NIDDM mice [4]; R-VMP 50 mg/Kg, bid, day 15): 82.3%
E = D − A, blood glucose level minus vehicle (NIDDM mice [4]; R-VMP 50 mg/Kg, bid, day 29): −22%
blood glucose level, % of day 0 (NIDDM mice [4]; R-VMP 50 mg/Kg, bid, day 29): 94.4%
E = D − A, blood glucose level minus vehicle (NIDDM mice [4]; R-VMP 50 mg/Kg, bid, day 43): −22.9%
blood glucose level, % of day 0 (NIDDM mice [4]; R-VMP 50 mg/Kg, bid, day 43): 98.7%
effect on blood glucose levels (FIG. 3) (NIDDM mice [4]; higher dose, 30 or 50 mg/Kg, bid): could reduce the blood glucose levels
effect on blood glucose level on its own (NIDDM mice [4]; bid): possessed no treatment effect
effect on blood glucose level on its own (NIDDM mice [4]; bid, listed as R-VPM): ineffective

COc1ccc(CCN(C)CCC[C@@](C#N)(c2ccc(OC)c(OC)c2)C(C)C)cc1OC.Cl [S-VPM, (S)-(−)-verapamil HCl]
effect on reduction of fasting blood glucose level (FIG. 2) (NIDDM mice [2]; dose not printed in the sentence (bid)): neither racemic verapamil HCl (30 mg/Kg, bid) nor (S)-(−)-verapamil HCl, possessed any effect

CN(C)C(=N)N=C(N)N [metformin, reference compound]
effect on level of fasting blood glucose (FIG. 2) (NIDDM mice [2]; metformin 300 mg/Kg): reduced the level of fasting blood glucose
effect on HbA1c level (FIG. 4) (NIDDM mice [3]; metformin): significantly reduce HbA1c level
C = B − A, HbA1c level minus vehicle (NIDDM mice [3]; day 15): −5.5
HbA1c level relative to day 0 = 100 (NIDDM mice [3]; day 15): 114.7
C = B − A, HbA1c level minus vehicle (NIDDM mice [3]; day 29): −2.5
HbA1c level relative to day 0 = 100 (NIDDM mice [3]; day 29): 124.9
C = B − A, HbA1c level minus vehicle (NIDDM mice [3]; day 43): −3
HbA1c level relative to day 0 = 100 (NIDDM mice [3]; day 43): 133
C = B − A, blood glucose level minus vehicle (NIDDM mice [4]; [5]): −31.8%
blood glucose level, % of day 0 (NIDDM mice [4]; [5]): 65.3%
C = B − A, blood glucose level minus vehicle (NIDDM mice [4]; [6]): −12.8%
blood glucose level, % of day 0 (NIDDM mice [4]; [6]): 103.6%
C = B − A, blood glucose level minus vehicle (NIDDM mice [4]; [7]): −12.8%
blood glucose level, % of day 0 (NIDDM mice [4]; [7]): 108.8%
reduction of blood glucose level compared with the vehicle group (NIDDM mice [4]; day 15): about 31.8%
reduction of blood glucose level compared with the vehicle group (NIDDM mice [4]; day 29): ~12.8%
reduction of blood glucose level compared with the vehicle group (NIDDM mice [4]; day 43): ~12.8%
effect on blood glucose levels (FIG. 3) (NIDDM mice [4]; metformin, days 15, 29 and 43): could reduce the blood glucose levels

insulin [reference compound]
effect on level of non-fasting or fasting blood glucose (FIG. 1) ([1]; insulin subcutaneously 90 minutes before measurement): capable of reducing
